Reference: article PMC8457056, “Remodeling of the Fibrillation Pathway of α‐Synuclein by Interaction with Antimicrobial Peptide LL‐III” (Chemistry (Weinheim an Der Bergstrasse, Germany), 2021)

What was measured:
[1] = tested on: several bacterial strains, fungi; conditions: ref [28]; cited from earlier work
Source text: (§1) Antimicrobial peptides (AMPs) are a particular class of disordered proteins. They form an important part of the immune system of all living organisms and are considered as the first line of defense against infections caused by pathogens.[25, 26, 27] […] The LL‐III is a posi ...

[2] = ref [28]; cited from earlier work
Source text: as §1

cancer cells = conditions: cited from earlier work
Source text: as §1

α‐Syn = experiment: phase-contrast light microscopy of α-Syn droplet and fibril formation; format: biochemical, human
Protocol: Figure 1 A) Phase‐contrast light microscopy snapshots of 100 μM and 200 μM α‐Syn solutions collected 2, 4, 7, 9 and 16 days after incubation of the monomeric α‐Syn. B) Phase‐contrast light microscopy snapshots of a solution of 100 μM α‐Syn in the presence of the reported concentration of antimicrobial peptide LL‐III. Each sample was prepared by mixing the monomeric form of α‐Syn with LL‐III. The pictures were taken after 9 and 16 days of incubation. For the snapshots after 16 days, at each peptide concentration, two different regions of the cover slip were sampled, showing the presence of discrete droplets as well as droplet clusters in solution. C) Phase‐contrast light and fluorescence microscopy snapshots of a 100 μM α‐Syn solution in the presence of 50 μM LL‐III (total peptide concentration, the concentration of the carboxyfluorescein‐labelled peptide was 1 μM). All the experiments were performed at room temperature (25 °C) in 20 mM sodium acetate buffer, pH 5.0. The scale bar is 30 μm.
To reveal if the short antimicrobial peptide LL‐III is able to affect the fibril formation of α‐Syn, we performed a series of microscopy experiments by using 100 μM of α‐Syn and varying the concentration of LL‐III between 50 μM and 500 μM. The samples were prepared by mixing a solution of LL‐III peptide and α‐Syn in the monomeric state and taking pictures after 9 and 16 days. The results are collected in Figure 1B. […] After 9 days, droplets as well as clusters thereof were visible. The size of the clusters depended on the LL‐III concentration. Higher peptide concentrations promoted the association of more droplets. […] To confirm partitioning of the LL‐III peptide in the α‐Syn droplets, complementary fluorescence microscopy experiments were performed using a carboxyfluorescein‐labelled LL‐III peptide.
The lyophilized powders of the labeled and unlabeled LL-III peptide were purchased from GenScript, Germany.
The sequence of the LL-III peptide is NH2-VNWKKIL GKIIKVVK -CONH2. In th e labeled peptide, the fluorophore 6-carboxyfluorescein (FAM) was covalently attached to the N-terminus of the peptide. All the solutions were pre-pared in 20 mM sodium acetate buffer at pH 5.0. Deionized water was used for the buffer and all sample prepara- […]
Expression and purification of α-synuclein
The expression and purification of α-synuclein (α-Syn) was carried out as described before.[1,2] The plasmid was purchased from GenScript. The plasmid pT7- 7 expressing human α-synuclein was transformed into Escherichia coli strain BL21 (DE3). A single colony was picked and inoculated into 100 m l LB medium containing 150 μg/m l ampicillin and grown at 37°C with shaking at 250 rpm until the absorbance at 600 nm reached 0.8. Induction was then carried out by adding 1 mM IPTG (final concentration) and the culture was further grown under similar con-ditions for 3 h. The cells were harvested, resuspended in 0.75 ml of buffer (50 mM Tris-HCl, pH 7.5, 10 mM EDTA and 150 mM NaCl) and frozen at - 80 °C. Tubes containing frozen cells were placed in a boiling water bath for 7 min and the supernatant collected after centrifugation at maximum speed for […]. Streptomycin sulfate (136 μl/ml of supernatant) and glacial acetic acid (228 μl/ml of supernatant) were added and centrifuged for 2 min. Again, t he supernatant was recovered and precipitated with ammonium sulfate (saturated ammonium sulfate at 4°C was used 1:1, v/v, with supernatant). […]

## NH2-VNWKKIL GKIIKVVK -CONH2 [LL‐III]
[1]
  activity against several bacterial strains, fungi: remarkable activity
[2]
  cytotoxicity: moderate cytotoxicity
Cancer cells; ref [22]
  cellular localization: localizing mainly in the nucleolus and in granules
  translocation across plasma membrane: able to translocate across the plasma membrane of cancer cells
Cancer cells; ref [28]
  activity against cancer cells: remarkable activity
α‐Syn; 100 μM monomeric α-Syn, LL-III 50–500 μM, 9 and 16 days, 20 mM sodium acetate, pH 5.0, 25 °C
  inhibition of α-Syn fibril formation: LL‐III inhibits formation of the amyloidogenic state of the protein
α‐Syn; 100 μM α-Syn, 50 μM LL-III, 20 mM sodium acetate, pH 5.0, 25 °C
  inhibition of fibril formation at 50 μM LL-III: the formation of fibrils was already inhibited
α‐Syn; 100 μM α-Syn, 200 μM and 500 μM LL-III, pH 5.0, 25 °C
  number of droplets: the number of droplets was significantly increased
α‐Syn; 100 μM α-Syn, LL-III 50–500 μM, 16 days, pH 5.0, 25 °C
  effect on droplet condensate after 16 days: fostered formation of the droplet condensate
α‐Syn; conclusion
  decondensation of the droplets: No decondensation of the droplets takes place
